# Assay results as given in ChEMBL document CHEMBL5055643, “Sophoraflavanone G Resensitizes ABCG2-Overexpressing Multidrug-Resistant Non-Small-Cell Lung Cancer Cells to Chemotherapeutic Drugs” (J Nat Prod, 2021).
# Key:
# NCI-H460 [1] = experiment: Chemo-sensitizing activity against mitoxantrone-selected ABCG2-overexpressing human NCI-H460/MX20 cells assessed as reversal fold at 1 uM measured after 72 hrs in presence of mitoxantrone by CCK8 assay relative to control; type: functional
# NCI-H460 [2] = experiment: Chemo-sensitizing activity against mitoxantrone-selected ABCG2-overexpressing human NCI-H460/MX20 cells assessed as reversal fold at 5 uM measured after 72 hrs in presence of mitoxantrone by CCK8 assay relative to control; type: functional
# NCI-H460 [3] = experiment: Chemo-sensitizing activity against human NCI-H460 cells assessed as reversal fold at 2 uM measured after 72 hrs in presence of topotecan by CCK8 assay relative to control; type: functional
# NCI-H460 [4] = experiment: Chemo-sensitizing activity against human NCI-H460 cells assessed as reversal fold at 5 uM measured after 72 hrs in presence of topotecan by CCK8 assay relative to control; type: functional
# NCI-H460 [5] = experiment: Chemo-sensitizing activity against mitoxantrone-selected ABCG2-overexpressing human NCI-H460/MX20 cells assessed as reversal fold at 1 uM measured after 72 hrs in presence of topotecan by CCK8 assay relative to control; type: functional
# NCI-H460 [6] = experiment: Chemo-sensitizing activity against human NCI-H460 cells assessed as reversal fold at 1 uM measured after 72 hrs in presence of SN-38 by CCK8 assay relative to control; type: functional
# NCI-H460 [7] = experiment: Chemo-sensitizing activity against human NCI-H460 cells assessed as reversal fold at 5 uM measured after 72 hrs in presence of SN-38 by CCK8 assay relative to control; type: functional
# A549 [8] = experiment: Chemo-sensitizing activity against becatecarin-selected ABCG2-overexpressing human A549/Bec150 cells assessed as reversal fold at 1 uM measured after 72 hrs in presence of mitoxantrone by CCK8 assay relative to control; type: functional
# A549 [9] = experiment: Chemo-sensitizing activity against becatecarin-selected ABCG2-overexpressing human A549/Bec150 cells assessed as reversal fold at 5 uM measured after 72 hrs in presence of mitoxantrone by CCK8 assay relative to control; type: functional
# A549 [10] = experiment: Chemo-sensitizing activity against becatecarin-selected ABCG2-overexpressing human A549/Bec150 cells assessed as reversal fold at 2 uM measured after 72 hrs in presence of topotecan by CCK8 assay relative to control; type: functional
# A549 [11] = experiment: Chemo-sensitizing activity against becatecarin-selected ABCG2-overexpressing human A549/Bec150 cells assessed as reversal fold at 1 uM measured after 72 hrs in presence of SN-38 by CCK8 assay relative to control; type: functional
# A549 [12] = experiment: Chemo-sensitizing activity against becatecarin-selected ABCG2-overexpressing human A549/Bec150 cells assessed as reversal fold at 5 uM measured after 72 hrs in presence of SN-38 by CCK8 assay relative to control; type: functional
# HEK293 [13] = experiment: Chemo-sensitizing activity against human HEK293 cells assessed as reversal fold at 2 uM measured after 72 hrs in presence of mitoxatrone by CCK8 assay relative to control; type: functional
# HEK293 [14] = experiment: Chemo-sensitizing activity against ABCG2-overexpressing human HEK293/482R cells assessed as reversal fold at 2 uM measured after 72 hrs in presence of SN-38 by CCK8 assay relative to control; type: functional
# OVCAR-8 = experiment: Chemo-sensitizing activity against human OVCAR-8 cells assessed as reversal fold at 2 uM measured after 72 hrs in presence of colchicine by CCK8 assay relative to control; type: functional
# KB 3-1 [15] = experiment: Chemo-sensitizing activity against human KB 3-1 cells assessed as reversal fold at 2 uM measured after 72 hrs in presence of vincristine by CCK8 assay relative to control; type: functional
# KB 3-1 [16] = experiment: Chemo-sensitizing activity against human KB 3-1 cells assessed as reversal fold at 1 uM measured after 72 hrs in presence of paclitaxel by CCK8 assay relative to control; type: functional
# KB 3-1 [17] = experiment: Chemo-sensitizing activity against human KB 3-1 cells assessed as reversal fold at 1 uM measured after 72 hrs in presence of colchicine by CCK8 assay relative to control; type: functional
# KB-V1 [18] = experiment: Chemo-sensitizing activity against ABCB1-oveexpressing human KB-V1 cells assessed as reversal fold at 2 uM measured after 72 hrs in presence of colchicine by CCK8 assay relative to control; type: functional
# KB-V1 [19] = experiment: Chemo-sensitizing activity against ABCB1-oveexpressing human KB-V1 cells assessed as reversal fold at 5 uM measured after 72 hrs in presence of colchicine by CCK8 assay relative to control; type: functional
# HEK293 [20] = experiment: Chemo-sensitizing activity against human HEK293 cells assessed as reversal fold at 2 uM measured after 72 hrs in presence of paclitaxel by CCK8 assay relative to control; type: functional
# HEK293 [21] = experiment: Chemo-sensitizing activity against ABCB1-overexpressing human HEK293/MDR19 cells assessed as reversal fold at 2 uM measured after 72 hrs in presence of paclitaxel by CCK8 assay relative to control; type: functional
# HEK293 [22] = experiment: Chemo-sensitizing activity against ABCB1-overexpressing human HEK293/MDR19 cells assessed as reversal fold at 5 uM measured after 72 hrs in presence of paclitaxel by CCK8 assay relative to control; type: functional
# HEK293 [23] = experiment: Chemo-sensitizing activity against human HEK293 cells assessed as reversal fold at 5 uM measured after 72 hrs in presence of colchicine by CCK8 assay relative to control; type: functional
# HEK293 [24] = experiment: Chemo-sensitizing activity against ABCB1-overexpressing human HEK293/MDR19 cells assessed as reversal fold at 5 uM measured after 72 hrs in presence of colchicine by CCK8 assay relative to control; type: functional
# ABCG2 = target: T1, ABCG2 (Homo sapiens, UniProt Q9UNQ0); experiment: Inhibition of ABCG2 in mitoxantrone-selected ABCG2-overexpressing human NCI-H460/MX20 cells assessed as increase in intracellular mitoxantrone accumulation at 20 uM incubated for 1 hr in presence of mitoxantrone by flow cytometry; type: cell-based; conditions: probe mitoxantrone
# T1 sequence (Q9UNQ0 whole entry): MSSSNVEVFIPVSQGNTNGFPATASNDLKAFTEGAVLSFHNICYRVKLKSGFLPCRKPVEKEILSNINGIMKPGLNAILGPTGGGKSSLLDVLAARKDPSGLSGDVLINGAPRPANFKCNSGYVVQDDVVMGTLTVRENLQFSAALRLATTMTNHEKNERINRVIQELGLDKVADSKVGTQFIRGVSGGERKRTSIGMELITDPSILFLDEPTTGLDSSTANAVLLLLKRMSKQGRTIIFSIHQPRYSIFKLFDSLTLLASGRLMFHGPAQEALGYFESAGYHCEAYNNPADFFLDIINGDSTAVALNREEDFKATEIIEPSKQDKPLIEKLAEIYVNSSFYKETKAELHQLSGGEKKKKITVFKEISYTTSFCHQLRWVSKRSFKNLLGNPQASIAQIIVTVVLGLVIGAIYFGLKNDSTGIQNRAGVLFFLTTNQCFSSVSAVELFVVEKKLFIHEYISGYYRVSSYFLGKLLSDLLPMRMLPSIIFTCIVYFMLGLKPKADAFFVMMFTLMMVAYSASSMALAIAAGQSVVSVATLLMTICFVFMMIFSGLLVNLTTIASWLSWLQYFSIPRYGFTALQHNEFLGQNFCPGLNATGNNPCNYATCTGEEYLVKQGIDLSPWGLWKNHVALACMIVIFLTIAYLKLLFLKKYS
compound,measurement,setting,value
C=C(C)[C@H](CC=C(C)C)Cc1c(O)cc(O)c2c1O[C@H](c1ccc(O)cc1O)CC2=O [SOPHORAFLAVANONE G],fold change (FC),NCI-H460 [1],1.9
same,fold change (FC),NCI-H460 [2],7.6
same,fold change (FC),NCI-H460 [3],2.1
same,fold change (FC),NCI-H460 [4],3
same,fold change (FC),NCI-H460 [5],4.1
same,fold change (FC),NCI-H460 [6],1.3
same,fold change (FC),NCI-H460 [7],2.8
same,fold change (FC),A549 [8],2.7
same,fold change (FC),A549 [9],9.1
same,fold change (FC),A549 [10],1.8
same,fold change (FC),A549 [11],1.7
same,fold change (FC),A549 [12],7.7
same,fold change (FC),HEK293 [13],0.9
same,fold change (FC),HEK293 [14],2.4
same,fold change (FC),OVCAR-8,1
same,fold change (FC),KB 3-1 [15],1.2
same,fold change (FC),KB 3-1 [16],0.9
same,fold change (FC),KB 3-1 [17],1
same,fold change (FC),KB-V1 [18],0.9
same,fold change (FC),KB-V1 [19],0.8
same,fold change (FC),HEK293 [20],1
same,fold change (FC),HEK293 [21],1.2
same,fold change (FC),HEK293 [22],1.3
same,fold change (FC),HEK293 [23],1
same,fold change (FC),HEK293 [24],0.6
same,"inhibition at 1 h, 20 µM",ABCG2,100%
